Results reported in patent US8455473B2, “Composition and method for irrigation of a prepared dental root canal” (The University of British Columbia, priority 2008, dated 2013).

Legend:
[1] = tested on: Enterococcus faecalis A197A; assay type: cell-based; conditions: all exposure times (5 seconds, 30 seconds, 3 minutes); detection level 99.995% killing
Description: The antibacterial activity of the composition was evaluated by exposing a planktonic culture (in suspension) of Enterococcus faecalis A197A, a resistant bacterial species often isolated from treatment resistant endodontic infections (root canal infections). In the evaluation, cultures were exposed for 5 seconds, 30 seconds, and 3 minutes. Detection level was at 99.995% killing.

enterococci = conditions: saturated calcium hydroxide solution (pH≧12.5), in vitro; cited from earlier work
yeasts = conditions: saturated calcium hydroxide solution (pH≧12.5), in vitro; cited from earlier work

| SMILES | survival of Enterococcus faecalis A197A (cfu %) [1] [%] | time to kill enterococci (enterococci) [min] | time to kill yeasts (yeasts) [h] |
| --- | --- | --- | --- |
| O=C(O)CN(CCN(CC(=O)O)CC(=O)O)CC(=O)O [17% EDTA, ethylenediamine tetraacetic acid] | 100 | – | – |
| [Ca+2].[OH-].[OH-] [calcium hydroxide, Calcium hydroxide] | – | ≤ 20 | ≤ 6 |
